From patent US20080096894A1, “Anti-Bacterial Compounds” (ASTON UNIVERSITY, priority 2005, published 2008)
Structures can show the parent of a compound that is named as a salt. Where two headings read alike, the source gives them in different places.

Legend:
[1] = system: human mononuclear leucocytes (MNL, white blood cells); conditions: rat liver microsomes added; Coleman et al 1999; cited from earlier work
[2] = system: MRSA; assay: MIC, agar dilution, multipoint inoculator; format: cell-based, methicillin-resistant Staphylococcus aureus
Summary of the method: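 Agar dilution MIC on Mueller Hinton agar, multipoint inoculator delivering 10^4 colony forming units per spot. MRSA values are ranges across ten clinical MRSA strains; S. aureus NCTC 6571 as reference strain.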

[3] = system: human mononuclear leucocytes (MNL, white blood cells); assay: direct leucocyte toxicity, tryptan blue exclusion, 18 hours; format: cell-based; conditions: human, 18 h, 1 mM
Description: The in vitro assay used human mononuclear leucocytes (MNL, white blood cells) which were incubated with the test compound for 18 hours and cell death determined by tryptan blue exclusion (tryptan blue is a dye, which stains dead cells, whilst living cells extrude it).
The toxicity of 4PYcq and the aldehyde cq and pyridine-4-carboxamidrazone precursors were assessed using the same in vitro assay with human mononuclear leucocytes as that described above. The toxicity of related compounds, 2-hydroxybenzylidene-pyridine-2-carboxamidrazone 4PYbw and benzylidenepyridine-2-carboxamidrazone 4PYaa were also examined.

[4] = system: Bacillus subtilis; assay: MIC, doubling dilution in 96-well microtitre plate; format: cell-based
Description: (§1) The compound was tested as follows. […] The wells were inoculated with organism ([…] of medium containing 10^6 cfu/mL) and the plates were incubated at 37° C. overnight. Where growth of organism occurred this was observed as a small button when viewed from underneath the plate. The MIC was determined as the lowest concentration inhibiting growth.

[5] = system: Bacillus cereus; assay: MIC, doubling dilution in 96-well microtitre plate; format: cell-based
Description: as §1

[6] = system: Bacillus megarerium; assay: MIC, doubling dilution in 96-well microtitre plate; format: cell-based
Description: as §1

[7] = system: Enterococcus faecium; assay: MIC, doubling dilution in 96-well microtitre plate; format: cell-based; conditions: Enterococcus faecium ATCC 10541
Description: as §1

[8] = system: Micrococcus roseus; assay: MIC, doubling dilution in 96-well microtitre plate; format: cell-based
Description: as §1

[9] = system: Micrococcus luteus; assay: MIC, doubling dilution in 96-well microtitre plate; format: cell-based
Description: as §1

[10] = system: Moraxella catarrhalis; assay: MIC, doubling dilution in 96-well microtitre plate; format: cell-based
Description: as §1

[11] = system: Enterococcus faecalis NCTC 5957; assay: MIC, doubling dilution in 96-well microtitre plate; format: cell-based
Description: as §1

[12] = system: Streptococcus bovis NCTC 11436; assay: MIC, doubling dilution in 96-well microtitre plate; format: cell-based
Description: as §1

[13] = system: Staphylococcus epidermidis NCTC 11047; assay: MIC, doubling dilution in 96-well microtitre plate; format: cell-based
Description: as §1

[14] = system: Staphylococcus aureus W11 MRSA; assay: MIC, doubling dilution in 96-well microtitre plate; format: cell-based
Description: as §1

[15] = system: Staphylococcus aureus NCTC 10788; assay: MIC, doubling dilution in 96-well microtitre plate; format: cell-based
Description: as §1

[16] = system: Staphylococcus aureus (MRSA) 96-7475; assay: MIC, doubling dilution in 96-well microtitre plate; format: cell-based
Description: as §1

[17] = system: Staphylococcus aureus NCTC 6571; assay: MIC, doubling dilution in 96-well microtitre plate; format: cell-based
Description: as §1

[18] = system: S. aboni; assay: MIC, agar dilution, multipoint inoculator; format: cell-based; conditions: S. aboni NCTC 6017; upper value of MIC reading
Summary of the method: (§2)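 Each strain was spot-inoculated (10^4 CFU) onto Mueller Hinton agar plates carrying compound dilutions, using a multipoint device, and the MIC was recorded.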

[19] = system: B. bronchiseptica; assay: MIC, agar dilution, multipoint inoculator; format: cell-based; conditions: Bordetella bronchiseptica, NCTC8344, 18 h
Summary of the method: as §2

[20] = system: S. haemolyticus; assay: MIC, agar dilution, multipoint inoculator; format: cell-based; conditions: Staphylococcus haemolyticus, 18 h
Summary of the method: as §2

[21] = system: S. maltophilia; assay: MIC, agar dilution, multipoint inoculator; format: cell-based; conditions: Stenotrophomonas maltophilia, NCTC10257, 18 h
Summary of the method: as §2

[22] = system: E. faecalis; assay: MIC, agar dilution, multipoint inoculator; format: cell-based; conditions: Enterococcus faecalis, upper value of MIC reading
Summary of the method: as §2

[23] = system: E. coli; assay: MIC, agar dilution, multipoint inoculator; format: cell-based, Escherichia coli
Summary of the method: as §2

[24] = system: vancomycin resistant enterococci; assay: MIC, agar dilution, multipoint inoculator; format: cell-based
Description: This activity was measured using a multipoint inoculator method as follows. The MIC for each compound was measured using an agar dilution method (Onda, H., et al., Int. J. Antimicrob. Agents. 18, 263 (2001)) (Mueller Hinton agar) by means of a multipoint inoculator delivering 10^4 colony forming units per spot.
It will be noted that compound 4PYcq was active against all strains of MRSA as well as all other Gram positive bacteria. For this reason it was further tested against some vancomycin resistant enterococci, using the multipoint inoculator method described above. It can be seen from Table 5 that the high level activity was retained.

[25] = system: P. auriginosa; assay: MIC, agar dilution, multipoint inoculator; format: cell-based, Pseudomonas aeruginosa; conditions: Pseudomonas aeruginosa, NCTC6749, 18 h
Summary of the method: as §2

[26] = system: E. faecium; assay: MIC, agar dilution, multipoint inoculator; format: cell-based, Enterococcus faecium; conditions: Enterococcus faecium
Summary of the method: as §2

[27] = system: E. cloacae; assay: MIC, agar dilution, multipoint inoculator; format: cell-based, Enterobacter cloacae; conditions: Enterobacter cloacae, NCTC11582, 18 h
Summary of the method: as §2

[28] = system: S. aureus; assay: MIC, agar dilution, multipoint inoculator; format: cell-based, Staphylococcus aureus; conditions: Staphylococcus aureus
Summary of the method: as §2

[29] = system: S. marcesens; assay: MIC, agar dilution, multipoint inoculator; format: cell-based, Serratia marcescens; conditions: Serratia marcescens, 18 h
Summary of the method: as §2

[30] = system: S. epidemisis; assay: MIC, agar dilution, multipoint inoculator; format: cell-based, Staphylococcus epidermidis; conditions: Staphylococcus epidermidis
Summary of the method: as §2

[31] = system: K. pneumoniae; assay: MIC, agar dilution, multipoint inoculator; format: cell-based, Klebsiella pneumoniae; conditions: Klebsiella pneumoniae, 18 h
Summary of the method: as §2

[32] = system: E. faecium isolates; conditions: against 86% of E. faecium isolates; cited from earlier work

N/C(=N\N=C\c1cccc2ccccc12)c1ccccn1 [Compound 2PYal]
cytotoxicity in the presence of the metabolising system (in words) [1]: marked reduction in cytotoxicity
MIC ([2]; Staphylococcus aureus, MRSA, 18 h, panel of ten MRSA strains (clinical isolates), read-out: MRSA MIC range): > 256 µg/mL
% Leucocyte Death [3]: 17.1 ± 4.9%

NC(=NN=Cc1cccc2ccccc12)c1cc[n+]([O-])cc1 [Compound 4PYOal]
MIC [4]: 16 to 32 µg/mL
MIC [5]: 8 to 16 µg/mL
MIC [6]: 16 to 32 µg/mL
MIC [7]: 16 to 32 µg/mL
MIC [8]: 16 to 32 µg/mL
MIC [9]: 16 to 32 µg/mL
MIC [10]: 16 to 32 µg/mL

NC(=NN=Cc1c2ccccc2cc2ccccc12)c1cc[n+]([O-])cc1 [Compound 4PYOam]
MIC [4]: 64 to 128 µg/mL
MIC [7]: 64 to 128 µg/mL
MIC [8]: 32 to 64 µg/mL
MIC [11]: 64 to 128 µg/mL

NC(=NN=Cc1ccccc1Sc1ccc(Cl)cc1)c1cc[n+]([O-])cc1 [Compound 4PYOeh]
MIC [8]: 32 to 64 µg/mL
MIC [10]: 64 to 128 µg/mL

CC(=O)Nc1ccc(C=NN=C(N)c2cc[n+]([O-])cc2)cc1 [Compound 4PYOfa]
MIC [4]: 4 to 8 µg/mL
MIC [5]: 8 to 16 µg/mL
MIC [6]: 16 to 32 µg/mL
MIC [7]: 16 to 32 µg/mL
MIC [8]: 16 to 32 µg/mL

CC(C)(C)c1ccc(C=NN=C(N)c2cc[n+]([O-])cc2)cc1 [Compound 4PYOfb]
MIC [4]: 8 to 16 µg/mL
MIC [5]: 16 to 32 µg/mL
MIC [6]: 16 to 32 µg/mL
MIC [7]: 16 to 32 µg/mL
MIC [8]: 8 to 16 µg/mL
MIC [10]: 32 to 64 µg/mL

CC(C)(C)c1ccc(O)c(C=NN=C(N)c2cc[n+]([O-])cc2)c1 [Compound 4PYOfe]
MIC [9]: 8 to 16 µg/mL
MIC [10]: 8 to 16 µg/mL

CC(C)(C)c1cc(C=NN=C(N)c2cc[n+]([O-])cc2)cc(C(C)(C)C)c1 [Compound 4PYOff]
MIC [4]: 32 to 64 µg/mL
MIC [5]: 32 to 64 µg/mL
MIC [7]: 32 to 64 µg/mL
MIC [12]: 32 to 64 µg/mL
MIC [13]: 32 to 64 µg/mL
MIC [9]: 32 to 64 µg/mL
MIC [14]: 32 to 64 µg/mL
MIC [15]: 32 to 64 µg/mL
MIC [11]: 32 to 64 µg/mL
MIC [16]: 32 to 64 µg/mL
MIC [10]: 16 to 32 µg/mL
MIC [17]: 32 to 64 µg/mL

CC(C)(C)c1cccc(C=NN=C(N)c2cc[n+]([O-])cc2)c1O [Compound 4PYOfg]
MIC [12]: 32 to 64 µg/mL
MIC [9]: 8 to 16 µg/mL
MIC [10]: 4 to 8 µg/mL

CN[C@H](CC(C)C)C(=O)N[C@H]1C(=O)N[C@@H](CC(N)=O)C(=O)N[C@H]2C(=O)N[C@H]3C(=O)N[C@H](C(=O)N[C@H](C(=O)O)c4cc(O)cc(O)c4-c4cc3ccc4O)[C@H](O)c3ccc(c(Cl)c3)Oc3cc2cc(c3O[C@@H]2O[C@H](CO)[C@@H](O)[C@H](O)[C@H]2O[C@H]2C[C@](C)(N)[C@H](O)[C@H](C)O2)Oc2ccc(cc2Cl)[C@H]1O [Vanc., Vancomycin hydrochloride, reference compound]
MIC [18]: 0.05 µg/mL
MIC [19]: > 16 µg/mL
MIC [20]: 8 µg/mL
MIC [21]: > 16 µg/mL
MIC ([22]; 18 h, E. faecalis EBH1): 0.12 µg/mL
MIC ([22]; 18 h, E. faecalis Isolate 1): 0.25 µg/mL
MIC ([22]; 18 h, E. faecalis Isolate 2): 0.25 µg/mL
MIC ([22]; 18 h, E. faecalis Isolate 3): 0.12 µg/mL
MIC ([22]; 18 h, E. faecalis Isolate 4): 16 µg/mL
MIC ([22]; 18 h, E. faecalis Isolate 5): 2 µg/mL
MIC ([22]; NCTC5957, 18 h, E. faecalis NCTC 5957): 0.25 µg/mL
MIC ([23]; E. coli W3110R+, upper value of MIC reading): > 16 µg/mL
MIC ([23]; Escherichia coli, 18 h): > 16 µg/mL
MIC ([24]; Culture 3001562): 4 to 8 µg/mL
MIC ([24]; Culture 3002043): 4 to 8 µg/mL
MIC ([24]; Culture 3002066): 4 to 8 µg/mL
MIC ([24]; Culture 3005323): > 16 µg/mL
MIC ([24]; Culture 3005426): 4 to 8 µg/mL
MIC ([24]; Culture 3102095): > 16 µg/mL
MIC ([24]; Culture 30053530): > 16 µg/mL
MIC [25]: > 16 µg/mL
MIC ([26]; 18 h): 0.12 µg/mL
MIC ([26]; NCTC7171, 18 h): 0.12 µg/mL
MIC ([2]; MRSA Isolate 1, upper value of MIC reading, in µg/mL): 0.12
MIC ([2]; MRSA Isolate 2, upper value of MIC reading, in µg/mL): 0.12
MIC ([2]; MRSA Isolate 3, upper value of MIC reading, in µg/mL): 0.12
MIC ([2]; MRSA Isolate 4, upper value of MIC reading, in µg/mL): 0.12
MIC ([2]; MRSA Isolate 5, upper value of MIC reading, in µg/mL): 0.12
MIC ([2]; MRSA Isolate 6, upper value of MIC reading, in µg/mL): 0.12
MIC ([2]; MRSA Isolate 7, upper value of MIC reading, in µg/mL): 0.12
MIC ([2]; MRSA Isolate 8, upper value of MIC reading, in µg/mL): 0.12
MIC ([2]; MRSA Isolate 9, upper value of MIC reading, in µg/mL): 0.12
MIC ([2]; Staphylococcus aureus, 18 h): 0.12 µg/mL
MIC [27]: > 16 µg/mL
MIC ([28]; 18 h): 0.25 µg/mL
MIC ([28]; NCTC6571, 18 h): 0.05 µg/mL
MIC ([28]; NCTC10788, 18 h): 0.12 µg/mL
MIC [29]: > 16 µg/mL
MIC ([30]; 18 h): 8 µg/mL
MIC ([30]; NCTC11047, 18 h): 8 µg/mL
MIC [31]: > 16 µg/mL

quinupristin/dalfopristin
MIC [32]: ≤ 2 mg/L
